# Test results taken from patent US20240409662A1, “ANTIBODY MASKS AND USES THEREOF” (Vibrant Pharma Limited, priority 2021, published 2024).
# “Also recorded” adds a separate entry of the source. Like-named read-outs stand apart in the source and are kept apart here. No end group written: not given here.
# B1: SP34 chimeric antibody (antibody, V domains shown)
# VH: EVKLLESGGGLVQPKGSLKLSCAASGFTFNTYAMNWVRQAPGKGLEWVARIRSKYNNYATYYADSVKDRFTISRDDSQSILYLQMNNLKTEDTAMYYCVRHGNFGNSYVSWFAYWGQGTLVTVSS
# VL: QAVVTQESALTTSPGETVTLTCRSSTGAVTTSNYANWVQEKPDHLFTGLIGGTNKRAPGVPARFSGSLIGDKAALTITGAQTEDEAIYFCALWYSNLWVFGGGTKVEIK
# notes: VH and VL fused to the constant regions of human IgG1
# B2: SP34: anti-CD3 antibody; VH and VL (SEQ ID NOs 1, 2) fused to human IgG1 constant regions, chimeric antibody (antibody, V domains shown)
# VH: B1 VH
# VL: B1 VL
# modifications: human IgG1 constant regions; VH of anti-CD3 antibody SP34; VL of anti-CD3 antibody SP34
# Assays:
# SP34 [1] = experiment: BLI affinity of biotinylated N-terminal CD3ε peptides (on SA biosensor) to SP34 as analyte; format: binding; details: peptide immobilized
# Description: (§1) Bio-Layer Interferometry (BLI) technique was employed for the measurement of protein-protein interactions in this study. A Octet Red96 system and Streptavidin (SA) or AHC biosensors (ForteBio, Fremont) were utilized.
# (§2) To measure the binding of SP34 to CD3ε peptides, the peptides were immobilized on the SA biosensor through SA-biotin interaction according the manufacturer's instruction. After running PBS with 0.01% Tween-20 buffer to stabilize baselines, the biosensors were dipped into solid black 96-well plates (Greiner Bio-One, Cat. #65520, Monroe, North Carolina, USA) containing SP34 in indicated concentrations. Association and dissociation were measured accordingly, and binding kinetics were calculated using ForteBio's Data Analysis 12.0 software.
# (§3) BLI technology was employed to measure the affinity of the six peptides to SP34 with a ForteBio Red96. These peptides were immobilized on the SA Biosensor and their affinities were measured using SP34 as the analyte. The binding sensorgrams indicate that SP34 binds to all six peptides with very similar profiles (FIG. 1C). The affinities of the bindings were determined as between 1-4 nM (Table 1), very similar to that of CD3δε/SP34 binding. […] It is further hypothesized that a N-terminal CD3ε peptide […] can bind to SP34 as well.
# SP34 [2] = experiment: ELISA of SP34 binding to coated CD3ε1-27-Fc fusion proteins; details: FIG. 2A
# Protocol: Examination of binding of SP34 to CD3ε1-27-Fc fusion proteins was conducted by ELISA. 100 μL of 2 μg/mL fusion protein was coated on 96 well microtiter plate (Nunc) at room temperature (RT) overnight. After blocking the wells with 3% milk-PBS (3% non-fat milk in 137 mM NaCl, 2.7 mM KCl, 10 mM Na2HPO4 1.8 mM KH2PO4) at RT for 1 hr and 6 washes with 0.05% PBST (0.05% Tween-20 in PBS), SP34 (5 μg/mL, 50 μL/well) was added to the wells as the first antibody and allowed for incubation at 37° C. for 1 hr. The wells were washed for 6 times with PBST after the incubation, and the second antibody horseradish peroxidase (HRP) labeled anti-Kappa light chain (Sigma, 1:6,000 dilution, 50 μL/well) was added and allowed for incubation at RT for 50 min. After 6 washes with PBST, 3,3′, 5,5′-Tetramethylbenzidine (TMB) was added to develop color, and 1M HCl was then added to stop the reaction. ELISA titer was read with a microtiter plate reader (Thermo Fisher) at 450 nm wavelength.
# SP34 [3] = experiment: BLI binding of SP34 to CD3ε1-27 mutant fusion proteins; details: FIG. 2B
# Protocol: Measurement of bindings between CD3ε1-27 mutants-SP34 fusion, or M-TCE, and […] was conducted as described above but with AHC sensors to capture M-TCE, and […] was used as the analyte.
# In some embodiment, binding of SP34 to the second batch of 42 variants of […] mutant fusion proteins were tested by BLI with a ForteBio Red96 as described above.
# SP34 [4] = experiment: Masking capability of potential masks of SP34 (ELISA, BLI); format: binding; details: mask and linker fused to SP34 VH and/or VL
# Protocol: Binding of the 19 M-TCEs to both their antigens CEACAM5 and CD3δε was assessed with BLI using ForteBio Red96 as described above.
# MMP9 = target: T1, MMP9 (Homo sapiens, UniProt P14780); experiment: Removal of masks by MMP9 digestion, SDS-PAGE; format: biochemical; details: 100 nM activated MMP9, 37° C., 3 hr
# T1 construct: purchased Acrobiosystems
# Protocol: MMP9 proenzyme (proMMP9), purchased from Acrobiosystems, was dissolved to 100 μg/mL in MMP9 digestion buffer (50 mM Tris, 10 mM CaCl2), 150 mM NaCl, pH 7.6). 4-aminophenylmercuric acetate (APMA) was added to a final concentration of 1 mM. The proMMP9-APMA mixture was incubated at 37° C. for 24 hr to activate proMMP9.
# The selected M-TCEs, after adjusting to MMP9 digestion buffer, was mixed with activated MMP9 to a final concentration of 100 nM. The samples were further incubated at 37° C. for 3 hr to allow M-TCEs to be digested by MMP9.
# The M-TCEs with 14 AA, 16 AA and 18 AA linker could be completely or nearly completely digested, as only the faster migrating bands could be seen. […] Too short linker would make the removal of the masks difficult, probably because the employed enzyme, MMP9 in this case, could not fully engage with its digestion site in the M-TCEs.
# HT29 cells = experiment: PBMC co-cultivation assay, M-TCE-induced killing of HT29 cells; format: cell-based, human; details: for EC50: HT29 + human PBMC, 72 hours, read-out: Efficacy (EC50)
# Protocol: Five digested and undigested M-TCEs were tested for their tumor cell killing capability in the presence of human PBMC.
# A total of 5×10^3 cells in RPMI1640 medium (supplemented with 10% FBS and 2 mM glutamine) of the target cell line (HT29) were seeded in 96-well plates (Day 0). A dilution series of respective antibodies was performed in assay media and added to target cells. On Day 0, a total of 5×10^4 PBMCs were added to each well, and the final reaction volume was adjusted to 200 μl. Percentage viability of target cell was measured by […]. LDH was measured after 72 hours using the Cell Counting Kit-8 (CK04, Dojindo, Japan) according to the manufacturer's recommendations. The results were analyzed as mean and standard deviation (SD) from triplicate wells and plotted as 4-parameter non-linear regression fittings using GraphPad Prism 9 software (GraphPad Software, San Diego, CA, USA).
# CD3δε [5] = target: T2, CD3δε (Homo sapiens, UniProt P07766); experiment: BLI (Octet Red96), SP34 on AHC biosensor, CD3δε as analyte
# CD3ε-p1 = target: T3, CD3ε-p1 (human); experiment: BLI, biotinylated peptide on SA biosensor, SP34 as analyte
# T3 construct: also called 5 AA N-terminal CD3ε peptide
# T3 peptide: QDGNEGGGGS-biotin
# Protocol: as §2
# as §3, with “1C).” for “1C). The affinities of the bindings were determined as between 1-4 nM (Table 1), very similar to that of CD3δε/SP34 binding.”
# CD3ε-p2 = target: T4, CD3ε-p2 (human); experiment: as above
# T4 construct: also called 8 AA N-terminal CD3ε peptide
# T4 peptide: QDGNEEMGGGGGS-biotin
# Protocol: as §2
# as §3, with “1C).” for “1C). The affinities of the bindings were determined as between 1-4 nM (Table 1), very similar to that of CD3δε/SP34 binding.”
# CD3ε-p3 = target: T5, CD3ε-p3 (human); experiment: as above
# T5 construct: also called 11 AA N-terminal CD3ε peptide
# T5 peptide: QDGNEEMGGITGGGGS-biotin
# Protocol: as §2
# as §3, with “1C).” for “1C). The affinities of the bindings were determined as between 1-4 nM (Table 1), very similar to that of CD3δε/SP34 binding.”
# CD3ε-p5 = target: T6, CD3ε-p5 (human, biotinylation at the C-terminus); experiment: as above
# T6 construct: also called 17 AA N-terminal CD3ε peptide
# T6 peptide: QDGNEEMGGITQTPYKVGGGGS
# Protocol: as §2
# as §3, with “1C).” for “1C). The affinities of the bindings were determined as between 1-4 nM (Table 1), very similar to that of CD3δε/SP34 binding.”
# CD3ε-p6 = target: T7, CD3ε-p6 (human, biotinylation at the C-terminus); experiment: as above
# T7 construct: also called 20 AA N-terminal CD3ε peptide
# T7 peptide: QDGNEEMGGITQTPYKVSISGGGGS
# Protocol: as §2
# as §3, with “1C).” for “1C). The affinities of the bindings were determined as between 1-4 nM (Table 1), very similar to that of CD3δε/SP34 binding.”
# CD3ε-p7 = target: T8, CD3ε-p7 (human, biotinylation at the C-terminus); experiment: as above
# T8 construct: also called 23 AA N-terminal CD3ε peptide
# T8 peptide: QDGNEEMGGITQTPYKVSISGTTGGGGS
# Protocol: as §2
# as §3, with “1C).” for “1C). The affinities of the bindings were determined as between 1-4 nM (Table 1), very similar to that of CD3δε/SP34 binding.”
# CD3δε [6] = target: T2, CD3δε; experiment: BLI affinity of SP34 (immobilized on AHC biosensor) to CD3δε as analyte; format: binding; design: purchased ACRO (Beijing, China)
# Protocol: as §1
# Target sequence in this assay (P07766 22-126 limits assumed): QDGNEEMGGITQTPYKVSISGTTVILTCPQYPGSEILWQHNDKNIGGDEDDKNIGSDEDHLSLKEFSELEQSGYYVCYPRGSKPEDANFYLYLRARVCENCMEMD
# Target sequence in this assay (P04234 22-105 partner limits assumed): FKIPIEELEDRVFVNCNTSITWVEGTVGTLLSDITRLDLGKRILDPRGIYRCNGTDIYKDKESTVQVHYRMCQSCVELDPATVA
# CD3δε was purchased from ACRO (Beijing, China) and used as the antigen for SP34 affinity measurement.
# SP34 was immobilized on the AHC biosensor and its affinity to CD3δε was measured using the latter as the analyte. This approach was selected as it can avoid potential multivalent binding and give accurate affinity between SP34 and CD3δε.
# T1 sequence (P14780 107-707 limits assumed): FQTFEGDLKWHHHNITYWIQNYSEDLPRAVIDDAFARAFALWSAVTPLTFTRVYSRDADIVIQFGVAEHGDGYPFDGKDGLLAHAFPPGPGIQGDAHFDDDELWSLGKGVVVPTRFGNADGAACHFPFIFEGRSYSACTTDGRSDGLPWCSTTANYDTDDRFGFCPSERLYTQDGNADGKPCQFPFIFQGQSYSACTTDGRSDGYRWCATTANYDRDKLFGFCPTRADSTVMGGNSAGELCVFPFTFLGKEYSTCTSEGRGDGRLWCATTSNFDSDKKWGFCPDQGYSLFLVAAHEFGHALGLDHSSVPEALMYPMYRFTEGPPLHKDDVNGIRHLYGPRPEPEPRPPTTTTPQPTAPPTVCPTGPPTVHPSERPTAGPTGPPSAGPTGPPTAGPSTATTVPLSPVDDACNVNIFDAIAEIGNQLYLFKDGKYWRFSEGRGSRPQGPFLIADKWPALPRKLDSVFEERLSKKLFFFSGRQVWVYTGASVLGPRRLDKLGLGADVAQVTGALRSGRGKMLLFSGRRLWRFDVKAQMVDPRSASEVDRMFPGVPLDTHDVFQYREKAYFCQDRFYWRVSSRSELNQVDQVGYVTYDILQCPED
molecule,measurement,setting,value
"CD3ε-p2: N-terminal human CD3ε peptide with C-terminal GGGGS linker, biotinylated (QDGNEEMGGGGGS; not fully specified (C-terminus); also: biotinylated)",Kd,SP34 [1],3.6 nM
same,ka,SP34 [1],65000 M⁻¹ s⁻¹
same,kd,SP34 [1],0.00024 s⁻¹
"CD3ε-p3: N-terminal human CD3ε peptide with C-terminal GGGGS linker, biotinylated (QDGNEEMGGITGGGGS; not fully specified (C-terminus); also: biotinylated)",Kd,SP34 [1],2 nM
same,ka,SP34 [1],56000 M⁻¹ s⁻¹
same,kd,SP34 [1],0.00011 s⁻¹
"CD3ε-p5: N-terminal human CD3ε peptide with C-terminal GGGGS linker, biotinylated (QDGNEEMGGITQTPYKVGGGGS; not fully specified (C-terminus); also: biotinylated)",Kd,SP34 [1],1.8 nM
same,ka,SP34 [1],54000 M⁻¹ s⁻¹
same,kd,SP34 [1],9.8e-05 s⁻¹
"CD3ε-p6: N-terminal human CD3ε peptide with C-terminal GGGGS linker, biotinylated (QDGNEEMGGITQTPYKVSISGGGGS; not fully specified (C-terminus); also: biotinylated)",Kd,SP34 [1],3.5 nM
same,ka,SP34 [1],46000 M⁻¹ s⁻¹
same,kd,SP34 [1],0.00016 s⁻¹
"CD3ε-p7: N-terminal human CD3ε peptide with C-terminal GGGGS linker, biotinylated (QDGNEEMGGITQTPYKVSISGTTGGGGS; not fully specified (C-terminus); also: biotinylated, site not given here)",Kd,SP34 [1],1.3 nM
same,ka,SP34 [1],100000 M⁻¹ s⁻¹
same,kd,SP34 [1],0.00013 s⁻¹
D2C: D2C mutant of the CD3ε1-27-Fc fusion protein,binding of SP34 to fusion protein,SP34 [2],significant binding; also recorded: maintained binding
D2E: D2E mutant of the CD3ε1-27-Fc fusion protein,binding of SP34 to fusion protein,SP34 [2],significant binding; also recorded: maintained binding
D2G: D2G mutant of the CD3ε1-27-Fc fusion protein,binding of SP34 to fusion protein,SP34 [2],significant binding; also recorded: maintained binding
D2N: D2N mutant of the CD3ε1-27-Fc fusion protein,binding of SP34 to fusion protein,SP34 [2],significant binding; also recorded: maintained binding
G3A: G3A mutant of the CD3ε1-27-Fc fusion protein,binding of SP34 to fusion protein,SP34 [2],significant binding; also recorded: maintained binding
G3R: G3R mutant of the CD3ε1-27-Fc fusion protein,binding of SP34 to fusion protein,SP34 [3],maintained binding
"L4-D2E: M-TCE; QEGNEEGSGSPLGLGSGS-SP34VH, SEQ ID NO 27",Masking Capability,SP34 [4],Yes
same,digestion by MMP9,MMP9,partially digested
same,EC50,HT29 cells; MMP9-digested,0.011 nM
same,EC50,HT29 cells; Non-digested,0.65 nM
same,tumor cell killing efficacy,"HT29 cells; digested vs undigested, in words",higher efficacy in inducing tumor cell killing than their undigested counterparts
same,Digested vs. masked,HT29 cells; ratio of EC50 non-digested to MMP9-digested,59×
Q1C: Q1C mutant of the CD3ε1-27-Fc fusion protein,binding of SP34 to fusion protein,SP34 [3],maintained binding
B1,Kd,CD3δε [5],5.8 nM
same,koff,CD3δε [5],0.0032 s⁻¹
same,kon,CD3δε [5],550000 M⁻¹ s⁻¹
same,Kd,CD3ε-p1,0.99 nM
same,koff,CD3ε-p1,0.00016 s⁻¹
same,kon,CD3ε-p1,160000 M⁻¹ s⁻¹
same,Kd,CD3ε-p2,3.6 nM
same,koff,CD3ε-p2,0.00024 s⁻¹
same,kon,CD3ε-p2,65000 M⁻¹ s⁻¹
same,Kd,CD3ε-p3,2 nM
same,koff,CD3ε-p3,0.00011 s⁻¹
same,kon,CD3ε-p3,56000 M⁻¹ s⁻¹
same,Kd,CD3ε-p5,1.8 nM
same,koff,CD3ε-p5,9.8e-05 s⁻¹
same,kon,CD3ε-p5,54000 M⁻¹ s⁻¹
same,Kd,CD3ε-p6,3.5 nM
same,koff,CD3ε-p6,0.00016 s⁻¹
same,kon,CD3ε-p6,46000 M⁻¹ s⁻¹
same,Kd,CD3ε-p7,1.3 nM
same,koff,CD3ε-p7,0.00013 s⁻¹
same,kon,CD3ε-p7,100000 M⁻¹ s⁻¹
B2,ka,"CD3δε [6]; SP34 immobilized, CD3δε 9.4-150 nM as analyte",550000 M⁻¹ s⁻¹
same,kd,"CD3δε [6]; SP34 immobilized, CD3δε as analyte",0.0032 s⁻¹
same,Kd,CD3δε [6]; monovalent binding of SP34 to CD3δε,5.8 nM
